In ChEMBL document CHEMBL1201861, “Genomics of Drug Sensitity in Cancer screening data, Wellcome Trust Sanger Institute”:

What was measured:
Type in all cases: functional, cell-based
CP50-MEL-B = experiment: cells; details: Homo sapiens;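 also: growth inhibition of the human cell line, measured with a cell viability read-out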
Description: SANGER: Inhibition of human CP50-MEL-B cell growth in a cell viability assay.

Ca-Ski = experiment: cells; details: Homo sapiens;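 also: cell viability assay measuring inhibition of Ca-Ski cell growth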
Description: SANGER: Inhibition of human Ca-Ski cell growth in a cell viability assay.

CaR-1 = experiment: cells; details: Homo sapiens;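 also: growth inhibition of human CaR-1 cancer cells, read out with a cell viability assay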
Description: SANGER: Inhibition of human CaR-1 cell growth in a cell viability assay.

DU-145 = experiment: cells; details: Homo sapiens
Description: SANGER: Inhibition of human DU-145 cell growth in a cell viability assay.

DoTc2-4510 = experiment: cells; details: Homo sapiens
EB-3 = experiment: cells; details: Homo sapiens;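 also: human EB-3 cells, growth inhibition read out via a cell viability assay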
Description: SANGER: Inhibition of human EB-3 cell growth in a cell viability assay.

ECC4 = experiment: cells; details: Homo sapiens;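 also: growth inhibition of ECC4 cells, read out with a cell viability assay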
Description: SANGER: Inhibition of human ECC4 cell growth in a cell viability assay.

EVSA-T = experiment: cells; details: Homo sapiens;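 also: growth inhibition of EVSA-T cells, read out with a cell viability assay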
Description: SANGER: Inhibition of human EVSA-T cell growth in a cell viability assay.

HCC 2998 = experiment: cells; details: Homo sapiens;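 also: growth inhibition of human HCC2998 cells, measured with a cell viability read-out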
Description: SANGER: Inhibition of human HCC2998 cell growth in a cell viability assay.

HCC70 = experiment: cells; details: Homo sapiens;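 also: cell viability assay measuring how strongly the compound suppresses proliferation of HCC70 cells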
Description: SANGER: Inhibition of human HCC70 cell growth in a cell viability assay.

HOP-92 = experiment: cells; details: Homo sapiens;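 also: cell viability readout, with IC50 reflecting inhibition of HOP-92 cell growth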
Description: SANGER: Inhibition of human HOP-92 cell growth in a cell viability assay.

HSC-3 = experiment: cells; details: Homo sapiens
Description: SANGER: Inhibition of human HSC-3 cell growth in a cell viability assay.

HT-1376 = experiment: cells; details: Homo sapiens
Description: SANGER: Inhibition of human HT-1376 cell growth in a cell viability assay.

HT55 = experiment: cells; details: Homo sapiens;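 also: cell viability readout measuring growth inhibition of human HT55 cells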
Description: SANGER: Inhibition of human HT55 cell growth in a cell viability assay.

IM-9 = experiment: SANGER: Inhibition of human IM-9 cell growth in a cell viability assay.
LC-1F = experiment: cells; details: Homo sapiens;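 also: growth inhibition of human LC-1F cells, read out with a cell viability assay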
Description: SANGER: Inhibition of human LC-1F cell growth in a cell viability assay.

LC4-1 = experiment: cells; details: Homo sapiens;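 also: growth inhibition of LC4-1 cells, read out with a cell viability assay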
Description: SANGER: Inhibition of human LC4-1 cell growth in a cell viability assay.

M059J = experiment: cells; details: Homo sapiens;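 also: growth inhibition of M059J cells, read out with a cell viability assay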
Description: SANGER: Inhibition of human M059J cell growth in a cell viability assay.

M14 = experiment: cells; details: Homo sapiens;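 also: growth inhibition of M14 cells, read out with a cell viability assay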
Description: SANGER: Inhibition of human M14 cell growth in a cell viability assay.

MDA-MB-231 = experiment: cells; details: Homo sapiens
Description: SANGER: Inhibition of human MDA-MB-231 cell growth in a cell viability assay.

ME-180 = experiment: cells; details: Homo sapiens;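 also: cell viability assay measuring growth inhibition of ME-180 cells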
Description: SANGER: Inhibition of human ME-180 cell growth in a cell viability assay.

MKN-7 = experiment: cells; details: Homo sapiens;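 also: growth inhibition of MKN-7 cells, read out with a cell viability assay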
Description: SANGER: Inhibition of human MKN7 cell growth in a cell viability assay.

NB12 = experiment: cells; details: Homo sapiens;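 also: growth inhibition of human NB12 cells, read out by a cell viability assay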
Description: SANGER: Inhibition of human NB12 cell growth in a cell viability assay.

NCI-H1573 = experiment: cells; details: Homo sapiens;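 also: growth inhibition of NCI-H1573 cells, read out with a cell viability assay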
Description: SANGER: Inhibition of human NCI-H1573 cell growth in a cell viability assay.

NCI-H1623 = experiment: cells; details: Homo sapiens;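 also: cell viability assay used as the read-out for growth inhibition of NCI-H1623 cells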
Description: SANGER: Inhibition of human NCI-H1623 cell growth in a cell viability assay.

NCI-H1993 = experiment: cells; details: Homo sapiens;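 also: growth inhibition of the cancer cell line, assessed with a cell viability assay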
Description: SANGER: Inhibition of human NCI-H1993 cell growth in a cell viability assay.

NCI-H2009 = experiment: cells; details: Homo sapiens;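 also: cell viability assay measuring inhibition of NCI-H2009 cell growth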
Description: SANGER: Inhibition of human NCI-H2009 cell growth in a cell viability assay.

NCI-H2171 = experiment: cells; details: Homo sapiens;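 also: growth inhibition of human NCI-H2171 cells, read out by a cell viability assay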
Description: SANGER: Inhibition of human NCI-H2171 cell growth in a cell viability assay.

NCI-H2342 = experiment: cells; details: Homo sapiens;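 also: growth inhibition of the cancer cell line, determined with a cell viability assay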
Description: SANGER: Inhibition of human NCI-H2342 cell growth in a cell viability assay.

NCI-H2405 = experiment: cells; details: Homo sapiens;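 also: growth inhibition of the human cell line, read out with a cell viability assay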
Description: SANGER: Inhibition of human NCI-H2405 cell growth in a cell viability assay.

NCI-H28 = experiment: cells; details: Homo sapiens;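 also: growth inhibition of human NCI-H28 cells, read out as cell viability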
Description: SANGER: Inhibition of human NCI-H28 cell growth in a cell viability assay.

NCI-H345 = experiment: cells; details: Homo sapiens;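 also: growth inhibition of NCI-H345 cells measured with a cell viability assay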
Description: SANGER: Inhibition of human NCI-H345 cell growth in a cell viability assay.

NCI-H524 = experiment: cells; details: Homo sapiens;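 also: growth inhibition of human NCI-H524 cells, read out through a cell viability assay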
Description: SANGER: Inhibition of human NCI-H524 cell growth in a cell viability assay.

NCI-H661 = experiment: cells; details: Homo sapiens;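 also: cell viability assay read-out, IC50 being the concentration that inhibits growth of the cells by half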
Description: SANGER: Inhibition of human NCI-H661 cell growth in a cell viability assay.

NCI-N87 = experiment: cells; details: Homo sapiens;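 also: growth inhibition of human NCI-N87 cells, read out with a cell viability assay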
Description: SANGER: Inhibition of human NCI-N87 cell growth in a cell viability assay.

NY = experiment: cells; details: Homo sapiens
Description: SANGER: Inhibition of human NY cell growth in a cell viability assay.

OE19 = experiment: cells; details: Homo sapiens;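 also: growth inhibition of OE19 cells, measured through a cell viability read-out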
Description: SANGER: Inhibition of human OE19 cell growth in a cell viability assay.

PA-1 = experiment: cells; details: Homo sapiens;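 also: IC50 for suppression of PA-1 cell proliferation, determined with a cell viability read-out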
Description: SANGER: Inhibition of human PA-1 cell growth in a cell viability assay.

PANC-08-13 = experiment: cells; details: Homo sapiens
Description: SANGER: Inhibition of human PANC-08-13 cell growth in a cell viability assay.

PF-382 = experiment: cells; details: Homo sapiens
Description: SANGER: Inhibition of human PF-382 cell growth in a cell viability assay.

RD = experiment: cells; details: Homo sapiens
Description: SANGER: Inhibition of human RD cell growth in a cell viability assay.

RPMI-2650 = experiment: cells; details: Homo sapiens
Description: SANGER: Inhibition of human RPMI-2650 cell growth in a cell viability assay.

RVH-421 = experiment: cells; details: Homo sapiens
Description: SANGER: Inhibition of human RVH-421 cell growth in a cell viability assay.

SIG-M5 = experiment: cells; details: Homo sapiens;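 also: cell viability assay read-out, measuring how strongly growth of cultured human SIG-M5 cells is inhibited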
Description: SANGER: Inhibition of human SIG-M5 cell growth in a cell viability assay.

SIMA = experiment: cells; details: Homo sapiens;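 also: growth inhibition of SIMA cells, measured with a cell viability readout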
Description: SANGER: Inhibition of human SIMA cell growth in a cell viability assay.

SK-MEL-30 = experiment: cells; details: Homo sapiens;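 also: growth inhibition of SK-MEL-30 cells, determined with a cell viability assay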
Description: SANGER: Inhibition of human SK-MEL-30 cell growth in a cell viability assay.

SK-MES-1 = experiment: cells; details: Homo sapiens;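 also: growth inhibition of human SK-MES-1 cells, read out with a cell viability assay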
Description: SANGER: Inhibition of human SK-MES-1 cell growth in a cell viability assay.

SW1710 = experiment: cells; details: Homo sapiens;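 also: growth inhibition of SW1710 cells, determined with a cell viability assay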
Description: SANGER: Inhibition of human SW1710 cell growth in a cell viability assay.

SW1990 = experiment: cells; details: Homo sapiens
Description: SANGER: Inhibition of human SW1990 cell growth in a cell viability assay.

T98G = experiment: cells; details: Homo sapiens;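 also: growth inhibition of T98G cells, read out by a cell viability assay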
Description: SANGER: Inhibition of human T98G cell growth in a cell viability assay.

CWR22R = experiment: cells; details: Homo sapiens, 22Rv1;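 also: growth inhibition of 22Rv1 cells, read out with a cell viability assay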
Description: SANGER: Inhibition of human 22RV1 cell growth in a cell viability assay.

23132-87 = experiment: cells; details: Homo sapiens
Description: SANGER: Inhibition of human 23132-87 cell growth in a cell viability assay.

BC-3 = experiment: cells; details: Homo sapiens;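 also: cell viability assay measuring growth inhibition of human BC-3 cells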
Description: SANGER: Inhibition of human BC-3 cell growth in a cell viability assay.

BL-70 = experiment: SANGER: Inhibition of human BL-70 cell growth in a cell viability assay.
BOKU = experiment: cells; details: Homo sapiens;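 also: growth inhibition of the human BOKU cell line, read out by a cell viability assay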
Description: SANGER: Inhibition of human BOKU cell growth in a cell viability assay.

C-33-A = experiment: cells; details: Homo sapiens;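 also: cell viability assay measuring growth inhibition of C-33-A cells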
Description: SANGER: Inhibition of human C-33-A cell growth in a cell viability assay.

CAL-72 = experiment: cells; details: Homo sapiens;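 also: cell viability assay measuring inhibition of proliferation in the CAL-72 cell line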
Description: SANGER: Inhibition of human CAL-72 cell growth in a cell viability assay.

TE-441-T = experiment: cells; details: Homo sapiens
Description: SANGER: Inhibition of human TE-441-T cell growth in a cell viability assay.

THP-1 = experiment: cells; details: Homo sapiens;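 also: growth inhibition of THP-1 cells, read out via a cell viability assay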
Description: SANGER: Inhibition of human THP-1 cell growth in a cell viability assay.

UO-31 = experiment: cells; details: Homo sapiens
Description: SANGER: Inhibition of human U031 cell growth in a cell viability assay.

UMC-11 = experiment: cells; details: Homo sapiens;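 also: growth inhibition of UMC-11 cells, read out with a cell viability assay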
Description: SANGER: Inhibition of human UMC-11 cell growth in a cell viability assay.

VMRC-RCZ = experiment: cells; details: Homo sapiens
Description: SANGER: Inhibition of human VMRC-RCZ cell growth in a cell viability assay.

WM-115 = experiment: cells; details: Homo sapiens
Description: SANGER: Inhibition of human WM-115 cell growth in a cell viability assay.

YKG-1 = experiment: cells; details: Homo sapiens;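 also: cell growth inhibition, read out with a viability assay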
Description: SANGER: Inhibition of human YKG-1 cell growth in a cell viability assay.

CHL-1 = experiment: cells; details: Homo sapiens;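 also: cell growth inhibition, read out with a cell viability assay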
Description: SANGER: Inhibition of human CHL-1 cell growth in a cell viability assay.

C/C(O)=C(\C#N)C(=O)Nc1cc(Br)ccc1Br
IC50 (CP50-MEL-B): > 16 µM
IC50 (Ca-Ski): > 16 µM
IC50 (CaR-1): > 16 µM
IC50 (DU-145): > 16 µM
IC50 (DoTc2-4510): > 16 µM
IC50 (EB-3): > 16 µM
IC50 (ECC4): > 16 µM
IC50 (EVSA-T): > 16 µM
IC50 (HCC 2998): > 16 µM
IC50 (HCC70): > 16 µM
IC50 (HOP-92): > 16 µM
IC50 (HSC-3): > 16 µM
IC50 (HT-1376): > 16 µM
IC50 (HT55): > 16 µM
IC50 (IM-9): > 16 µM
IC50 (LC-1F): > 16 µM
IC50 (LC4-1): > 16 µM
IC50 (M059J): > 16 µM
IC50 (M14): > 16 µM
IC50 (MDA-MB-231): > 16 µM
IC50 (ME-180): > 16 µM
IC50 (MKN-7): > 16 µM
IC50 (NB12): > 16 µM
IC50 (NCI-H1573): > 16 µM
IC50 (NCI-H1623): > 16 µM
IC50 (NCI-H1993): > 16 µM
IC50 (NCI-H2009): > 16 µM
IC50 (NCI-H2171): > 16 µM
IC50 (NCI-H2342): > 16 µM
IC50 (NCI-H2405): > 16 µM
IC50 (NCI-H28): > 16 µM
IC50 (NCI-H345): > 16 µM
IC50 (NCI-H524): > 16 µM
IC50 (NCI-H661): > 16 µM
IC50 (NCI-N87): > 16 µM
IC50 (NY): > 16 µM
IC50 (OE19): > 16 µM
IC50 (PA-1): > 16 µM
IC50 (PANC-08-13): > 16 µM
IC50 (PF-382): > 16 µM
IC50 (RD): > 16 µM
IC50 (RPMI-2650): > 16 µM
IC50 (RVH-421): > 16 µM
IC50 (SIG-M5): > 16 µM
IC50 (SIMA): > 16 µM
IC50 (SK-MEL-30): > 16 µM
IC50 (SK-MES-1): > 16 µM
IC50 (SW1710): > 16 µM
IC50 (SW1990): > 16 µM
IC50 (T98G): > 16 µM
IC50 (CWR22R): > 16 µM
IC50 (23132-87): > 16 µM
IC50 (BC-3): > 16 µM
IC50 (BL-70): > 16 µM
IC50 (BOKU): > 16 µM
IC50 (C-33-A): > 16 µM
IC50 (CAL-72): > 16 µM
IC50 (TE-441-T): > 16 µM
IC50 (THP-1): > 16 µM
IC50 (UO-31): > 16 µM
IC50 (UMC-11): > 16 µM
IC50 (VMRC-RCZ): > 16 µM
IC50 (WM-115): > 16 µM
IC50 (YKG-1): > 16 µM
IC50 (CHL-1): > 16 µM

C/C=C(/C)C(=O)O[C@H]1C(C)=C2[C@H]([C@@H]1OC(=O)CCCCCCC)[C@@](C)(OC(C)=O)C[C@H](OC(=O)CCC)[C@@]1(O)[C@H]2OC(=O)[C@@]1(C)O [THAPSIGARGIN]
IC50 (CP50-MEL-B): 0.0111 µM
IC50 (Ca-Ski): 0.0322 µM
IC50 (CaR-1): 0.00862 µM
IC50 (DU-145): 0.00863 µM
IC50 (DoTc2-4510): 0.0124 µM
IC50 (EB-3): 0.019 µM
IC50 (ECC4): > 0.512 µM
IC50 (EVSA-T): 0.122 µM
IC50 (HCC 2998): < 0.002 µM
IC50 (HCC70): 0.0226 µM
IC50 (HOP-92): 0.00526 µM
IC50 (HSC-3): 0.0113 µM
IC50 (HT-1376): 0.00275 µM
IC50 (HT55): > 0.512 µM
IC50 (IM-9): > 0.512 µM
IC50 (LC-1F): 0.00419 µM
IC50 (LC4-1): 0.0423 µM
IC50 (M059J): 0.0108 µM
IC50 (M14): 0.014 µM
IC50 (MDA-MB-231): 0.000557 µM
IC50 (ME-180): > 0.512 µM
IC50 (MKN-7): > 0.512 µM
IC50 (NB12): 0.0132 µM
IC50 (NCI-H1573): 0.00162 µM
IC50 (NCI-H1623): > 0.512 µM
IC50 (NCI-H1993): > 0.512 µM
IC50 (NCI-H2009): 0.00163 µM
IC50 (NCI-H2171): 0.0125 µM
IC50 (NCI-H2342): < 0.002 µM
IC50 (NCI-H2405): 0.00114 µM
IC50 (NCI-H28): > 0.512 µM
IC50 (NCI-H345): 0.037 µM
IC50 (NCI-H524): 0.07 µM
IC50 (NCI-H661): 0.0199 µM
IC50 (NCI-N87): > 0.512 µM
IC50 (NY): < 0.002 µM
IC50 (OE19): 0.0365 µM
IC50 (PA-1): 0.000698 µM
IC50 (PANC-08-13): 0.0238 µM
IC50 (PF-382): 0.0259 µM
IC50 (RD): 0.00735 µM
IC50 (RPMI-2650): 0.00274 µM
IC50 (RVH-421): 0.00367 µM
IC50 (SIG-M5): < 0.002 µM
IC50 (SIMA): 0.0384 µM
IC50 (SK-MEL-30): 0.00324 µM
IC50 (SK-MES-1): < 0.002 µM
IC50 (SW1710): < 0.002 µM
IC50 (SW1990): < 0.002 µM
IC50 (T98G): 0.000741 µM
IC50 (CWR22R): 0.00117 µM
IC50 (23132-87): 0.0314 µM
IC50 (BC-3): 0.00451 µM
IC50 (BL-70): 0.00882 µM
IC50 (BOKU): > 0.512 µM
IC50 (C-33-A): 0.00977 µM
IC50 (CAL-72): 0.00227 µM
IC50 (TE-441-T): 0.0488 µM
IC50 (THP-1): 0.0114 µM
IC50 (UO-31): 0.0577 µM
IC50 (UMC-11): 0.00915 µM
IC50 (VMRC-RCZ): 0.0112 µM
IC50 (WM-115): 0.0219 µM
IC50 (YKG-1): 0.00772 µM
IC50 (CHL-1): 0.0125 µM
